Measurements: patent US20260116921A1, “PEPTIDE INHIBITORS OF INTERLEUKIN-23 RECEPTOR AND THEIR USE TO TREAT INFLAMMATORY DISEASES” (priority 2018, published 2026)
pIC50: −log10 of the molar value. Numbered stars: 1 amine (or outer) side, 2 acyl side, 3 side chain; on linkers, the order of the positions; unused ones are H or OH. Bridge positions count the residues as written; N and C are the ends. Square brackets hold non-standard residues; d marks the D form. Peptide text beside a SMILES is read from it. Trp(7-Me) = Cc1cccc2c(C[C@H](N)C(=O)O)c[nH]c12; Abu(4-yl) = O=C([C@H](CC[*:3])N[*:1])[*:2]; 2Nal = N[C@@H](Cc1ccc2ccccc2c1)C(=O)O; d2Nal = N[C@H](Cc1ccc2ccccc2c1)C(=O)O; AEF = NCCOc1ccc(C[C@H](N)C(=O)O)cc1; αMeF = C[C@](N)(Cc1ccccc1)C(=O)O; Cit = NC(=O)NCCC[C@H](N)C(=O)O; Pen = CC(C)(S)[C@H](N)C(=O)O; αMeK = C[C@](N)(CCCCN)C(=O)O; Aib = CC(C)(N)C(=O)O; Sar = CNCC(=O)O

Target: T1, IL-23R (Homo sapiens, UniProt Q5VWK5)
T1 sequence (Q5VWK5 24-629): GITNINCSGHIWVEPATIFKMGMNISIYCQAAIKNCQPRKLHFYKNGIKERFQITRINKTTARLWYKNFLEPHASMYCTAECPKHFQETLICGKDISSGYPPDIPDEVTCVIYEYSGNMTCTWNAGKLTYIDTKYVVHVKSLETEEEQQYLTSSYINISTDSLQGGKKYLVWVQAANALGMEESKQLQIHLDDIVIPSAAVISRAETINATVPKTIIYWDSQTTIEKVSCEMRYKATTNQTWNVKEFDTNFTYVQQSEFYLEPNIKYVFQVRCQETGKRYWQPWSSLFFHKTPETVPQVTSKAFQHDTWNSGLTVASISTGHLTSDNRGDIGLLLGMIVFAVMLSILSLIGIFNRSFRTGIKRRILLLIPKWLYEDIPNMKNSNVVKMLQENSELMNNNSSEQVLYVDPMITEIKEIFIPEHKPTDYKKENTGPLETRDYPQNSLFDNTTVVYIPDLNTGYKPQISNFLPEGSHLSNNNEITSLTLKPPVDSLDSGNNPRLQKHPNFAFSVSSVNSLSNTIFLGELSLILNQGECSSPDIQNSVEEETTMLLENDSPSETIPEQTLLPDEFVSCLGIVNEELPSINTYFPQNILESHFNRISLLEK
Assay: DB cells IL23R pSTAT3 cell assay (pStat3 HTRF)
Type: cell-based
Conditions: not given
Description: Human ELISA indicates the IL23-IL23R competitive binding assay described below, Rat ELISA indicates the rat IL-23R competitive binding ELISA assay described below, and pStat3HTRF indicates the DB cells IL-23R pSTAT3 cell assay described below. The peptides depicted in Table E1 are cyclized via a disulfide bridge formed between two Pen residues in these peptides. The peptides depicted in Table E2 are cyclized via a thioether bond between the indicated amino acid residues. Table E2 provides an illustrative structure depicting thioether cyclization, which is indicated in the table by the term “cyclo,” with the cyclic region bracketed immediately following the term “cyclo.” For certain peptides, the residue Abu is present where indicated, whereas in other embodiments, e.g., those related to the non-cyclized form, the Abu may be referred to as a hSer(Cl) or homoSer residue.
DB Cells IL23R pSTAT3 Cell Assay
IL-23 plays a central role in supporting and maintaining Th17 differentiation in vivo. This process is thought to be mediated primarily through the Signal Transducer and Activator of Transcription 3 (STAT3), with phosphorylation of STAT3 (to yield pSTAT3) leading to upregulation of RORC and pro-inflammatory IL-17. This cell assay examines the levels of pSTAT3 in IL-23R-expressing DB cells when stimulated with IL-23 in the presence of test compounds. Serial dilutions of test peptides and IL-23 (Humanzyme #HZ-1261) at a final concentration of 0.5 nM, were added to each well in a 96 well tissue culture plate (Corning #CLS3894). DB cells (ATCC #CRL-2289), cultured in RPMI-1640 medium (Thermo Scientific #11875093) supplemented with 10% FBS, were added at 5×10E5 cells/well and incubated for 30 minutes at 37° C. in a 5% CO2 humidified incubator. Changes in phospho-STAT3 levels in the cell lysates were detected using the Cisbio HTRF pSTAT3 (Tyr705) Cellular Assay Kit (Cisbio #62AT3PEH), according to manufacturer's Two Plate Assay protocol.

`COc1ccc2[nH]cc(C[C@@H]3NC(=O)[C@H]([C@@H](C)O)NC(=O)[C@H](CC(N)=O)NC(=O)[C@@H](NC(C)=O)C(C)(C)SSC(C)(C)[C@@H](C(=O)N[C@@H](Cc4ccc(OCCN)cc4)C(=O)N[C@@H](Cc4ccc5ccccc5c4)C(=O)N[C@@](C)(CC(C)C)C(=O)N[C@@H](CCCCNC(C)=O)C(=O)N[C@@H](CC(N)=O)C(=O)N[C@@H](CC(N)=O)C(N)=O)NC(=O)[C@H](CCC(N)=O)NC3=O)c2c1` [compound 9] and `CC(=O)NCCCC[C@H](NC(=O)[C@](C)(CC(C)C)NC(=O)[C@H](Cc1ccc2ccccc2c1)NC(=O)[C@H](Cc1ccc(OCCN)cc1)NC(=O)[C@H]1NC(=O)[C@H](CCC(N)=O)NC(=O)[C@H](Cc2c[nH]c3ccc(Br)cc23)NC(=O)[C@H]([C@@H](C)O)NC(=O)[C@H](CC(N)=O)NC(=O)[C@@H](NC(C)=O)C(C)(C)SSC1(C)C)C(=O)N[C@@H](CC(N)=O)C(=O)N[C@@H](CC(N)=O)C(N)=O` [compound 11] cannot be ordered by pIC50: < 7.00 for the first, < 7.00 for the second.

First: CC(=O)NCCCC[C@@H]1NC(=O)[C@H](Cc2c[nH]c3c(C)cccc23)NC(=O)[C@H]([C@@H](C)O)NC(=O)[C@H](CC(N)=O)NC(=O)[C@@H](NC(C)=O)C(C)(C)SSC(C)(C)[C@@H](C(=O)N[C@@H](Cc2ccc(OCCN)cc2)C(=O)N[C@@H](Cc2ccc3ccccc3c2)C(=O)N[C@@](C)(CCCCN)C(=O)N[C@@H](CCCCNC(C)=O)C(=O)N[C@@H](CO)C(=O)N[C@H](CCCCN)C(N)=O)NC1=O [compound 352]
Second: CC(=O)NCCCC[C@H](NC(=O)[C@](C)(CC(C)C)NC(=O)[C@H](Cc1c[nH]c2c(C)cccc12)NC(=O)[C@H](Cc1ccc(OCCN)cc1)NC(=O)[C@H]1NC(=O)[C@H](CCC(N)=O)NC(=O)[C@H](Cc2c[nH]c3ccccc23)NC(=O)[C@H]([C@@H](C)O)NC(=O)[C@H](CC(N)=O)NC(=O)[C@@H](NC(C)=O)C(C)(C)SSC1(C)C)C(=O)N[C@@H](CC(N)=O)C(=O)N[C@@H](CC(N)=O)C(N)=O [compound 17]
The pIC50 of the first is higher: 8.00 to 9.00 for the first, 7.00 to 8.00 for the second. The first is the more potent here.

`COc1ccc2[nH]cc(C[C@H](NC(=O)[C@H](Cc3ccc(OCCN)cc3)NC(=O)[C@H]3NC(=O)[C@H](CCC(N)=O)NC(=O)[C@H](Cc4c[nH]c5ccccc45)NC(=O)[C@H]([C@@H](C)O)NC(=O)[C@H](CC(N)=O)NC(=O)[C@@H](NC(C)=O)C(C)(C)SSC3(C)C)C(=O)N[C@@](C)(CC(C)C)C(=O)N[C@@H](CCCCNC(C)=O)C(=O)N[C@@H](CC(N)=O)C(=O)N[C@@H](CC(N)=O)C(N)=O)c2c1` [compound 20] and `CC(=O)NCCCC[C@H](NC(=O)[C@](C)(CC(C)C)NC(=O)[C@H](Cc1c[nH]c2ccc(F)cc12)NC(=O)[C@H](Cc1ccc(OCCN)cc1)NC(=O)[C@H]1NC(=O)[C@H](CCC(N)=O)NC(=O)[C@H](Cc2c[nH]c3ccccc23)NC(=O)[C@H]([C@@H](C)O)NC(=O)[C@H](CC(N)=O)NC(=O)[C@@H](NC(C)=O)C(C)(C)SSC1(C)C)C(=O)N[C@@H](CC(N)=O)C(=O)N[C@@H](CC(N)=O)C(N)=O` [compound 18] fall in the same range of pIC50: 7.00 to 8.00 for the first, 7.00 to 8.00 for the second.

With `CC(=O)NCCCC[C@H](NC(=O)[C@](C)(CC(C)C)NC(=O)[C@H](Cc1c[nH]c2cc(C)ccc12)NC(=O)[C@H](Cc1ccc(OCCN)cc1)NC(=O)[C@H]1NC(=O)[C@H](CCC(N)=O)NC(=O)[C@H](Cc2c[nH]c3ccccc23)NC(=O)[C@H]([C@@H](C)O)NC(=O)[C@H](CC(N)=O)NC(=O)[C@@H](NC(C)=O)C(C)(C)SSC1(C)C)C(=O)N[C@@H](CC(N)=O)C(=O)N[C@@H](CC(N)=O)C(N)=O` [compound 16] the pIC50 was 8.00 to 9.00.

Same assay, conditions: Table E3; DB cells, IL-23 0.5 nM, 30 minutes at 37° C.; read-out: pStat3 HTRF (IC50)

Compared with `CC(=O)NCCCC[C@@H]1NC(=O)[C@H](Cc2c[nH]c3c(C)cccc23)NC(=O)[C@H]([C@@H](C)O)NC(=O)[C@H](CCC(N)=O)NC(=O)[C@@H](NC(=O)[C@@H](CCCNC(=N)N)NC(C)=O)CCSC[C@@H](C(=O)N[C@@H](Cc2ccc(OCCN)cc2)C(=O)N[C@@H](Cc2ccc3ccccc3c2)C(=O)N[C@@](C)(CCCCN)C(=O)N[C@@H](CCCCNC(C)=O)C(=O)N[C@@H](CC(N)=O)C(=O)N[C@@](C)(Cc2ccccc2)C(N)=O)NC1=O` [compound 327] (Ac-[dR][Abu(4-yl)]QT[Trp(7-Me)]K(Ac)C[AEF][2Nal][αMeK]K(Ac)N[αMeF]-NH2; thioether 2-7), `CC(=O)NCCCC[C@H](NC(=O)[C@](C)(CCCCN)NC(=O)[C@H](Cc1ccc2ccccc2c1)NC(=O)[C@H](Cc1ccc(OCCN)cc1)NC(=O)[C@H]1NC(=O)[C@H](CCCNC(N)=O)NC(=O)[C@H](Cc2c[nH]c3c(C)cccc23)NC(=O)[C@H]([C@@H](C)O)NC(=O)[C@H](CC(N)=O)NC(=O)[C@@H](NC(C)=O)C(C)(C)SSC1(C)C)C(=O)N[C@@H](CC(N)=O)C(=O)NC(C)(C)C(=O)N[C@H](Cc1ccccc1)C(N)=O` [compound 346] (Ac-[Pen]NT[Trp(7-Me)][Cit][Pen][AEF][2Nal][αMeK]K(Ac)N[Aib][dF]-NH2; disulfide 1-6) is higher in pIC50: 7.00 to 8.00 for the first, > 9.00 for the second. The second is the more potent here.

`CC(=O)NCCCC[C@H](NC(=O)[C@](C)(CCCCN)NC(=O)[C@H](Cc1ccc2ccccc2c1)NC(=O)[C@H](Cc1ccc(OCCN)cc1)NC(=O)[C@H]1NC(=O)[C@H](CCCCNC(=O)CC(F)(F)F)NC(=O)[C@H](Cc2c[nH]c3c(C)cccc23)NC(=O)[C@H]([C@@H](C)O)NC(=O)[C@H](CC(N)=O)NC(=O)[C@@H](NC(C)=O)C(C)(C)SSC1(C)C)C(=O)N[C@@H](CC(N)=O)C(=O)N[C@H](CC(C)C)C(N)=O` [compound 319] and `CC(=O)NCCCC[C@H](NC(=O)[C@](C)(CCCCN)NC(=O)[C@H](Cc1ccc2ccccc2c1)NC(=O)[C@H](Cc1ccc(OCCN)cc1)NC(=O)[C@H]1NC(=O)[C@H](CCCNC(N)=O)NC(=O)[C@H](Cc2c[nH]c3c(C)cccc23)NC(=O)[C@H]([C@@H](C)O)NC(=O)[C@H](CC(N)=O)NC(=O)[C@@H](NC(C)=O)C(C)(C)SSC1(C)C)C(=O)N[C@@H](CC(N)=O)C(=O)NC(C)(C)C(=O)N[C@@H](C)C(N)=O` [compound 342] (Ac-[Pen]NT[Trp(7-Me)][Cit][Pen][AEF][2Nal][αMeK]K(Ac)N[Aib]A-NH2; disulfide 1-6) cannot be ordered by pIC50: > 9.00 for the first, > 9.00 for the second.

First: CC(=O)NCCCC[C@H](NC(=O)[C@](C)(CCCCN)NC(=O)[C@H](Cc1ccc2ccccc2c1)NC(=O)[C@H](Cc1ccc(OCCN)cc1)NC(=O)[C@H]1NC(=O)[C@H](CCCNC(N)=O)NC(=O)[C@H](Cc2c[nH]c3c(C)cccc23)NC(=O)[C@H]([C@@H](C)O)NC(=O)[C@H](CC(N)=O)NC(=O)[C@@H](NC(C)=O)C(C)(C)SSC1(C)C)C(=O)N[C@@H](CC(N)=O)C(=O)N(C)CC(N)=O [compound 339] (Ac-[Pen]NT[Trp(7-Me)][Cit][Pen][AEF][2Nal][αMeK]K(Ac)N[Sar]-NH2; disulfide 1-6)
Second: CC(=O)NCCCC[C@H](NC(=O)[C@](C)(CCCCN)NC(=O)[C@H](Cc1ccc2ccccc2c1)NC(=O)[C@H](Cc1ccc(OCCN)cc1)NC(=O)[C@H]1NC(=O)[C@H](CCCNC(N)=O)NC(=O)[C@H](Cc2c[nH]c3c(C)cccc23)NC(=O)[C@H]([C@@H](C)O)NC(=O)[C@H](CC(N)=O)NC(=O)[C@@H](NC(C)=O)C(C)(C)SSC1(C)C)C(=O)N[C@@H](CC(N)=O)C(=O)NC(C)(C)C(=O)N[C@H](CCCCN)C(N)=O [compound 344] (Ac-[Pen]NT[Trp(7-Me)][Cit][Pen][AEF][2Nal][αMeK]K(Ac)N[Aib][dK]-NH2; disulfide 1-6)
The pIC50 of the first is lower: 8.00 to 9.00 for the first, > 9.00 for the second.

For `CC(=O)NCCCC[C@H](NC(=O)[C@](C)(CCCCN)NC(=O)[C@H](Cc1ccc2ccccc2c1)NC(=O)[C@H](Cc1ccc(OCCN)cc1)NC(=O)[C@H]1NC(=O)[C@H](CCCNC(N)=O)NC(=O)[C@H](Cc2c[nH]c3c(C)cccc23)NC(=O)[C@H]([C@@H](C)O)NC(=O)[C@H](CC(N)=O)NC(=O)[C@@H](NC(C)=O)C(C)(C)SSC1(C)C)C(=O)N[C@@H](CC(N)=O)C(=O)NC(C)(C)C(=O)N[C@H](Cc1ccc2ccccc2c1)C(N)=O` [compound 348] (Ac-[Pen]NT[Trp(7-Me)][Cit][Pen][AEF][2Nal][αMeK]K(Ac)N[Aib][d2Nal]-NH2; disulfide 1-6), the pIC50 was 8.00 to 9.00.
